Data reported in US20130096135A1, “Selected Inhibitors of Protein Tyrosine Kinase Activity” (METHYLGENE INC., priority 2011, published 2013).
pIC50: −log10 of the molar value.

Biological target: T1, VEGF receptor KDR (VEGFR2) (Homo sapiens, UniProt P35968)
T1 construct: made in house; host or cells: Sf9 cells (Spodoptera frugiperda), baculovirus
Assay: In vitro receptor tyrosine kinase assay (VEGF receptor KDR), DELFIA
Type: biochemical
Settings: recombinant GST-VEGFR2 (806-1356), ATP 0.6 uM, enzyme 5 nM; read-out: VEGFR_IC50_UM
Text: In Vitro Receptor Tyrosine Kinase Assay (VEGF receptor KDR)
This test measures the ability of compounds to inhibit the enzymatic activity of recombinant human VEGF receptor enzymatic activity.
A 1.6-kb cDNA corresponding to the catalytic domain of VEGFR2 (KDR) (Genbank accession number AF035121 amino acid 806 to 1356) is cloned into the Pst I site of the pDEST20 Gateway vector (Invitrogen) for the production of a GST-tagged version of that enzyme. This construct is used to generate recombinant baculovirus using the Bac-to-Bac™ system according to the manufacturer's instructions (Invitrogen).
The GST-VEGFR2806-1356 protein is expressed in Sf9 cells (Spodoptera frugiperda) upon infection with recombinant baculovirus construct. Briefly, Sf9 cells grown in suspension and maintained in serum-free medium (Sf900 II supplemented with gentamycin) at a cell density of about 2×10^6 cells/ml are infected with the above-mentioned viruses at a multiplicity of infection (MOI) of 0.1 during 72 hours at 27° C. with agitation at 120 rpm on a rotary shaker. Infected cells are harvested by centrifugation at 398g for 15 min. Cell pellets are frozen at −80° C. until purification is performed.
All steps described in cell extraction and purification are performed at 4° C. Frozen Sf9 cell pellets infected with the GST-VEGFR2806-1356 recombinant baculovirus are thawed and gently resuspended in Buffer A (PBS pH 7.3 supplemented with 1 μg/ml pepstatin, 2 μg/ml Aprotinin and leupeptin, 50 μg/ml PMSF, 50 μg/ml TLCK and 10 μM E64 and 0.5 mM DTT) using 3 ml of buffer per gram of cells. Suspension is Dounce homogenized and 1% Triton X-100 is added to the homogenate after which it is centrifuged at 22500 g, 30 min., 4 °C. The supernatant (cell extract) is used as starting material for purification of GST-VEGFR2806-1356.
The supernatant is loaded onto a GST-agarose column (Sigma) equilibrated with PBS pH 7.3. Following a four column volume (CV) wash with PBS pH 7.3+1% Triton X-100 and 4 CV wash with buffer B (50mM Tris pH 8.0, 20% glycerol and 100mM NaCl), bound proteins are step eluted with 5 CV of buffer B supplemented with 5 mM DTT and 15 mM glutathion. GST-VEGFR2806-1356 enriched fractions from this chromatography step are pooled based on U.V. trace i.e. fractions with high 0.D.280. Final GST-VEGFR2806-1356 protein preparations concentrations are about 0.7 mg/ml with purity approximating 70%. Purified GST-VEGFR2806-1356 protein stocks are aliquoted and frozen at −80° C. prior to use in enzymatic assay.
Inhibition of VEGFR/KDR is measured in a DELFIATM assay (Perkin Elmer). The substrate poly(Glu4, Tyr) is immobilized onto black high-binding polystyrene 96-well plates. The coated plates are washed and stored at 4° C. During the assay, the enzyme is pre-incubated with inhibitor and Mg-ATP on ice in polypropylene 96-well plates for 4 minutes, and then transferred to the coated plates. The subsequent kinase reaction takes place at 30° C. for 10-30 minutes. ATP concentrations in the assay are 0.6 uM for VEGFR/KDR (2× the Km). Enzyme concentration is 5 nM. After incubation, the kinase reactions are quenched with EDTA and the plates are washed. Phosphorylated product is detected by incubation with Europium-labeled anti-phosphotyrosine MoAb. After washing the plates, bound MoAb is detected by time-resolved fluorescence in a Gemini SpectraMax reader (Molecular Devices). Compounds are evaluated over a range of concentrations, and IC50 values (concentration of compounds giving 50% inhibition of enzymatic activity) are determined.

T1 sequence (P35968 806-1356): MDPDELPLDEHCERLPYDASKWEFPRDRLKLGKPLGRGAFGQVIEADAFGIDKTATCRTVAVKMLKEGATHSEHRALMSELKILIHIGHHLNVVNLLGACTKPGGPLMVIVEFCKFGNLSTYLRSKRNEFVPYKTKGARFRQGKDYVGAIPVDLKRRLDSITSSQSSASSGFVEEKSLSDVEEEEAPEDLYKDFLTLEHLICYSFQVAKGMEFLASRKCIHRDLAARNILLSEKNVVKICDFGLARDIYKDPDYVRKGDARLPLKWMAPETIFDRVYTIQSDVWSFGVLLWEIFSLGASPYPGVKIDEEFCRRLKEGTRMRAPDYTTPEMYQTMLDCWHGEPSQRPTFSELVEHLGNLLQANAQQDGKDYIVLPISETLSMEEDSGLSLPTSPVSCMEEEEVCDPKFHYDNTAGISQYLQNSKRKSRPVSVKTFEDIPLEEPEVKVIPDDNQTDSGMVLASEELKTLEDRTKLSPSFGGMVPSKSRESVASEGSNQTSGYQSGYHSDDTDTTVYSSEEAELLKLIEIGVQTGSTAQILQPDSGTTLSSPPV

## C[C@@H]1CN(C(=O)CO)CCN1Cc1ccc(-c2cc3nccc(Oc4ccc(NC(=O)NC5CC5)cc4F)c3s2)nc1 [Compound 26, (R)-1-Cyclopropyl-3-(3-fluoro-4-(2-(5-((4-(2-hydroxyacetyl)-2-methylpiperazin-1-yl)methyl)pyridin-2-yl)thieno[3,2-b]pyridin-7-yloxy)phenyl)urea]
  pIC50: 8.40

## COCC(=O)N1CCN(Cc2ccc(-c3cc4nccc(Oc5ccc(NC(=O)NC6CC6)cc5F)c4s3)nc2)CC1 [Compound 32, 1-Cyclopropvl-3-(3-fluoro-4-(2-(5-((4-(2-methoxyacetyl)piperazin-1-yl)methyl)pyridin-2-yl)thieno[3,2-b]pyridin-7-yloxy)phenyl)urea]
  pIC50: 8.22

## O=C(Nc1ccc(Oc2ccnc3cc(-c4ccc(CN5CCN(C(=O)COC(=O)CCCC[C@H]6SC[C@H]7NC(=O)N[C@H]76)CC5)cn4)sc23)c(F)c1)NC1CC1 [Compound 120, 2-(4-((6-(7-(4-(3-Cyclopropylureido)-2-fluorophenoxy)thieno[3,2-b]pyridin-2-yl)pyridin-3-yl)methyl)piperazin-1-yl)-2-oxoethyl 5-((3aR,4R,6aS)-2-oxohexahydro-1H-thieno[3,4-d]imidazol-4-yl)pentanoate]
  pIC50: 7.68

## CN(CCO)C(=O)[C@@H]1CCCN(Cc2ccc(-c3cc4nccc(Oc5ccc(NC(=O)NC6CC6)cc5F)c4s3)nc2)C1 [Compound 12, (R)-1-((6-(7-(4-(3-Cyclopropylureido)-2-fluorophenoxy)thieno[3,2-b]pyridin-2-yl)pyridin-3-yl)methyl)-N-(2-hydroxyethyl)-N-methylpiperidine-3-carboxamide]
  pIC50: 8.22

## CC(C)C(=O)OCC(=O)N1CCN(Cc2ccc(-c3cc4nccc(Oc5ccc(NC(=O)NC6CC6)cc5F)c4s3)nc2)CC1 [Compound 80, 2-(4-((6-(7-(4-(3-Cyclopropylureido)-2-fluorophenoxy)thieno[3,2-b]pyridin-2-yl)pyridin-3-yl)methul)piperazin 1-yl)-2-oxoethyl isobutrate]
  pIC50: 7.70

## CC(=O)SCC(=O)N1CCN(Cc2ccc(-c3cc4nccc(Oc5ccc(NC(=O)NC6CC6)cc5F)c4s3)nc2)CC1 [Compound 22, S-2-(4-((6-(7-(4-(3-Cyclopropylureido)-2-fluorophenoxy)thieno[3,2-b]pyridin-2-yl)pyridin-3-yl)methyl)piperazin-1-yl)-2-oxoethyl ethanethioate]
  pIC50: 7.82

## CN(CCO)C(=O)[C@H]1CCCN(Cc2ccc(-c3cc4nccc(Oc5ccc(NC(=O)NC6CC6)cc5F)c4s3)nc2)C1 [Compound 11, (S)-1-((6-(7-(4-(3-Ccyclopropylureido)-2-fluorophenoxy)thieno[3,2-b]pyridin-2-yl)pyridin-3-yl)methyl)-N-(2-hydroxyethyl)-N-methylpiperidine-3-carboxamide]
  pIC50: 8.15

## CN(C)CCNC(=O)[C@H]1CCCN(Cc2ccc(-c3cc4nccc(Oc5ccc(NC(=O)NC6CC6)cc5F)c4s3)nc2)C1 [Compound 13, (S)-1-((6-(7-(4-(3-Cyclopropylureido)-2-fluorophenoxy)thieno[3,2-b]pyridin-2-yl)pyridin-3-yl)methyl)-N-(2-(dimethylamino)ethyl)piperidine-3-carboxamide]
  pIC50: 8.10

## C[C@@H](O)CN1CCN(Cc2ccc(-c3cc4nccc(Oc5ccc(NC(=O)NC6CC6)cc5F)c4s3)nc2)CC1 [Compound 29, (R)-1-Cyclopropyl-3-(3-fluoro-4-(2-(5-((4-(2-hydroxypropyl)piperazin-1-yl)methyl)pyridin-2-yl)thieno[3,2-b]pyridin-7-yloxy)phenyl)urea]
  pIC50: 8.30

## O=C(Nc1ccc(Oc2ccnc3cc(-c4ccc(CN5CCCC(C(=O)NC[C@@H](O)CO)C5)cn4)sc23)c(F)c1)NC1CC1 (stereo partly drawn) [Compound 9, 1-((6-(7-(4-(3-Cyclopropylureido)-2-fluoro-phenoxy)thieno[3,2-b]pyridin-2-yl)pyridin-3-yl)methyl)-N-((R)-2,3-dihydroxypropyl)piperidine-3-carboxamide]
  pIC50: 7.96

## COCCOCCOC(=O)N1CCN(Cc2ccc(-c3cc4nccc(Oc5ccc(NC(=O)NC6CC6)cc5F)c4s3)nc2)CC1 [Compound 75, 2-(2-Methoxyethoxy)ethyl 4-((6-(7-(4-(3-cyclopropylureido)-2-fluorophenoxy)thieno[3,2-b]pyridin-2-yl)pyridin-3-yl)methyl)piperazine-1-carboxylate]
  pIC50: 7.80

## CN(C)[C@H]1CCN(C(=O)C2CCCN(Cc3ccc(-c4cc5nccc(Oc6ccc(NC(=O)NC7CC7)cc6F)c5s4)nc3)C2)C1 (stereo partly drawn) [Compound 6, 1-Cyclopropyl-3-(4-(2-(5-((3-((S)-3-(dimethylamino)pyrrolidine-1-carbonyl)piperidin-1-yl)methyl)pyridin-2-yl)thieno[3,2-b]pyridin-7-yloxy)-3-fluorophenyl)urea]
  pIC50: 8.15

## C[C@@H]1CN(Cc2ccc(-c3cc4nccc(Oc5ccc(NC(=O)NC6CC6)cc5F)c4s3)nc2)CCN1CCO [Compound 119, (R)-1-cyclopropyl-3-(3-fluoro-4-(2-(5-((4-(2-hydroxyethyl)-3-methylpiperazin-1-yl)methyl)pyridin-2-yl)thieno[3,2-b]pyridin-7-yloxy)phenyl)urea]
  pIC50: 8.10

## O=C(Nc1ccc(Oc2ccnc3cc(-c4ccc(CN5CCCC(C(=O)N6CC[C@H](O)C6)C5)cn4)sc23)c(F)c1)NC1CC1 (stereo partly drawn) [Compound 8, 1-Cyclopropyl-3-(3-fluoro-4-(2-(5-((3-((S)-3-hydroxypyrrolidine-1-carbonyl)piperidin-1-yl)methyl)pyridin-2-yl)thieno[3,2-b]pyridin-7-yloxy)phenyl)urea]
  pIC50: 8.52

## O=C(Nc1ccc(Oc2ccnc3cc(-c4ccc(CN5CCCC(C(=O)N6CC[C@@H](O)C6)C5)cn4)sc23)c(F)c1)NC1CC1 (stereo partly drawn) [Compound 7, 1-Cyclopropyl-3-(3-fluoro-4-(2-(5-((3-((R)-3-hydroxypyrrolidine-1-carbonyl)piperidin-1-yl)methyl)pyridin-2-yl)thieno[3,2-b]pyridin-7-yloxy)phenyl)urea]
  pIC50: 8.15

## COCCOC(=O)N1CCN(Cc2ccc(-c3cc4nccc(Oc5ccc(NC(=O)NC6CC6)cc5F)c4s3)nc2)CC1 [Compound 76, 2-Methoxyethyl 4-((6-(7-(4-(3-cyclopropylureido)-2-fluorophenoxy)thieno[3,2-b]pyridin-2-yl)pyridin-3-yl)methyl)piperazine-1-carboxylate]
  pIC50: 8.10

## CN(C)CCN(C)C(=O)C1CCCN(Cc2ccc(-c3cc4nccc(Oc5ccc(NC(=O)NC6CC6)cc5F)c4s3)nc2)C1 (stereo not shown) [Compound 4, 1-((6-(7-(4-(3-Cyclopropylureido)-2-fluorophenoxy)thieno [3,2-b]pyridin-2-yl)pyridin-3-yl)methyl)-N-(2-(dimethylamino)ethyl)-N-methylpiperidine-3-carboxamide]
  pIC50: 8.10

## O=C(Nc1ccc(Oc2ccnc3cc(-c4ccc(CN5CCN(C(=O)CS)CC5)cn4)sc23)c(F)c1)NC1CC1 [Compound 114, 1-Cyclopropyl-3-(3-fluoro-4-(2-(5-((4-(2-mercaptoacetyl)piperazin-1-yl)methyl)pyridin-2-yl)thieno[3,2-b]pyridin-7-yloxy)phenyl)urea]
  pIC50: 8.00

## CC(=O)OC(C)(C)C(=O)N1CCN(Cc2ccc(-c3cc4nccc(Oc5ccc(NC(=O)NC6CC6)cc5F)c4s3)nc2)CC1 [Compound 35, 1-(4-((6-(7-(4-(3-Cyclopropylureido)-2-fluorophenoxy)thieno[3,2-b]pyridin-2-yl)pyridin-3-yl)methyl)piperazin-1-yl)-2-methyl-1-oxopropan-2-yl acetate]
  pIC50: 8.40
